From patent US7381824B2 (Agouron Pharmaceuticals, Inc., priority 2003, dated 2008) come the findings set out here.

Where only a bound is given, the exact number is not on record here.

This experiment addresses T1, human vascular endothelial growth factor receptor 2 (VEGF-R2) (Homo sapiens, UniProt P35968, DEL940-989/E990V).
T1 construct: VEGF-R2D50 contains residues 806-939 and 990-1171; made in house; host or cells: baculovirus/insect cell system
Put plainly: VEGF-R2 coupled spectrophotometric assay (FLVK, unphosphorylated VEGF-R2D50). The experiment is classed as biochemical. The note with it: unphosphorylated VEGF-R2D50 (FLVK). The source says: This construct determines the ability of a test compound to inhibit tyrosine kinase activity. A construct (VEGF-R2D50) of the cytosolic domain of human vascular endothelial growth factor receptor 2 (VEGF-R2) lacking the 50 central residues of the 68 residues of the kinase insert domain was expressed in a baculovirus/insect cell system. Of the 1356 residues of full-length VEGF-R2, VEGF-R2D50 contains residues 806-939 and 990-1171, and also one point mutation (E990V) within the kinase insert domain relative to wild-type VEGF-R2. Autophosphorylation of the purified construct was performed by incubation of the enzyme at a concentration of […] in the presence of 3 mM ATP and 40 mM MgCl2 in 100 mM HEPES, pH 7.5, containing 5% glycerol and 5 mM DTT, at 4° C. for 2 h. […] See Parast et al., Biochemistry, 37, 16788-16801 (1998).
VEGF-R2 Assay: Coupled Spectrophotometric (FLVK-P) Assay
The production of ADP from ATP that accompanies phosphoryl transfer was coupled to oxidation of NADH using phosphoenolpyruvate (PEP) and a system having pyruvate kinase (PK) and lactic dehydrogenase (LDH). The oxidation of NADH was monitored by following the decrease of absorbance at 340 nm (e340=6.22 cm^−1 mM^−1) using a Beckman DU 650 spectrophotometer. Assay conditions for phosphorylated VEGF-R2D50 (indicated as FLVK-P in the tables below) were the following: 1 mM PEP; […] NADH; 50 units of LDH/mL; 20 units of PK/mL; 5 mM DTT; 5.1 mM poly(E4Y1); 1 mM ATP; and 25 mM MgCl2 in 200 mM HEPES, pH 7.5. Assay conditions for unphosphorylated VEGF-R2D50 (indicated as FLVK in the tables) were the following: 1 mM PEP; […] NADH; 50 units of LDH/mL; 20 units of PK/mL; 5 mM DTT; 20 mM poly(E4Y1); 3 mM ATP; and 60 mM MgCl2 and 2 mM MnCl2 in 200 mM HEPES, pH 7.5. Assays were initiated with 5 to 40 nM of enzyme. K1 values were determined by measuring enzyme activity in the presence of varying concentrations of test compounds. The percent inhibition at 50 nM (% inhibition @ 50 nM) was determined by linear least-squares regression analysis of absorbance as a function of time. The binding inhibitions were fitted to equation as described by Morrison. The data were analyzed using Enzyme Kinetic and Kaleidagraph software.

T1 sequence (P35968 with tags, fused parts or gaps DEL940-989/E990V limits assumed): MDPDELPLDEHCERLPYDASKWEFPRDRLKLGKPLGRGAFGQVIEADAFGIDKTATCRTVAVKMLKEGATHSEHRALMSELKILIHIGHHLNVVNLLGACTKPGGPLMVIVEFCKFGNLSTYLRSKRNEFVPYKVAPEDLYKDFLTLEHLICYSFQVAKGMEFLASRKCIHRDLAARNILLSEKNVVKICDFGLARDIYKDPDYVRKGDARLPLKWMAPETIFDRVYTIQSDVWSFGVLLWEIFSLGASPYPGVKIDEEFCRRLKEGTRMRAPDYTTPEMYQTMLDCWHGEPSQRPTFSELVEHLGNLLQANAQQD

Broadly, the Ki is the dissociation constant of the complex between target and ligand, obtained from inhibition or displacement. In turn, `CNC(=O)c1c(C)oc2cc(Oc3ccnc4cc(OCc5ccccn5)ccc34)ccc12` [Example 33] returned a Ki of 1 to 10 nM. Consider `CNC(=O)c1c(C)sc2cc(Oc3ccnc4cc(C(=O)N5CCC[C@H]5COC)ccc34)ccc12` [Example 16, 6-[(7-{[(2S)-2-(methoxymethyl)pyrrolidin-1-yl]carbonyl)quinolin-4-yl)oxy]-N,2-dimethyl-1-benzothiophene-3-carboxamide], for which the Ki is greater than 10 nM. Turning to `CNC(=O)c1c(C)sc2cc(Oc3ccnc4cc(Br)ccc34)ccc12` [Example 20, 6-[(7-bromoquinolin-4-yl)oxy]-N,2-dimethy-1-benzothiophene-3-carboxamide], the Ki is greater than 10 nM. With `CNC(=O)c1c(C)oc2cc(Oc3ccnc4ccc(-c5ccncc5)cc34)ccc12` [Example 24, N,2-dimethyl-6-[(6-pyridin-4-ylquinolin-4-yl)oxy]-1-benzofuran-3-carboxamide] the figure was 1 to 10 nM; with `Cc1oc2cc(Oc3ccnc4cc(OCCNC(C)C)ccc34)ccc2c1C(=O)NC1CC1` [Example 95, N-cyclopropyl-6-({7-[2-(isopropylamino)ethoxy]quinolin-4-yl}oxy)-2-methyl-1-benzofuran-3-carboxamide], less than 1 nM; with `COc1ccc2c(Oc3ccc4c(C(=O)NCc5cccnc5)c(C)sc4c3)ccnc2c1` [Example 54, 6-[(7-methoxyquinolin-4-yl)oxy]-2-methyl-N-(pyridin-3-ylmethyl)-1-benzothiophene-3-carboxamide], greater than 10 nM. Molecule `CCCNC(=O)c1c(C)sc2cc(Oc3ccnc4cc(O)ccc34)ccc12` [Example 55, 6-[(7-hydroxyquinolin-4-yl)oxy]-2-methyl-N-propyl-1-benzothiophene-3-carboxamide] had a Ki greater than 10 nM. Next, `CNCCOc1ccc2c(Oc3ccc4c(C(=O)NC5CC5)c(C)oc4c3)ccnc2c1` [Example 90, N-cyclopropyl-2-methyl-6-({7-[2-(methylamino)ethoxy]quinolin-4-yl}oxy)-1-benzofuran-3-carboxamide]: less than 1 nM; `Cc1oc2cc(Oc3ccnc4cc(-c5ncccn5)ccc34)ccc2c1C(=O)NC1CC1` [Example 89, N-cyclopropyl-2-methyl-6-[(7-pyrimidin-2-ylquinolin-4-yl)oxy]-1-benzofuran-3-carboxamide]: less than 1 nM; `CNC(=O)c1c(C)sc2cc(Oc3ccnc4ccc(-c5ccncc5)cc34)ccc12` [Example 23, N,2-dimethyl-6-[(6-pyridin-4-ylquinolin-4-yl)oxy]-1-benzothiophene-3-carboxamide]: greater than 10 nM. `CCN1CCN(CCOc2ccc3c(Oc4ccc5c(C(=O)NC6CC6)c(C)oc5c4)ccnc3c2)CC1` [Example 94, N-cyclopropyl-2-methyl-6-{7-[2-(4-ethyl-piperazin-1-yl)-ethoxy]quinolin-4-yloxy}-1-benzofuran-3-carboxamide]: the inhibitory constant (Ki) is less than 1 nM.

As for `CNC(=O)c1c(C)n(C)c2cc(Oc3ccnc4cc(OCCN5CCCCC5)ccc34)ccc12` [Example 79, N,1,2-trimethyl-6-{[7-(2-piperidin-1-ylethoxy)quinolin-4-yl]oxy}-1H-indole-3-carboxamide], the Ki was greater than 10 nM. Molecule `CCC(O)CNC(=O)c1c(C)sc2cc(Oc3ccnc4cc(OC)ccc34)ccc12` (stereo not drawn) [Example 81, N-(2-hydroxybutyl)-6-[(7-methoxyquinolin-4-yl)oxy]-2-methyl-1-benzothiophene-3-carboxamide] returned a Ki greater than 10 nM. Turning to `CNC(=O)c1c(C)n(C)c2cc(Oc3ccnc4cc(OCCN5CCOCC5)ccc34)ccc12` [Example 77, N,1,2-trimethyl-6-{[7-(2-morpholin-4-ylethoxy)quinolin-4-yl]oxy}-1H-indole-3-carboxamide], the Ki is greater than 10 nM. `CNC(=O)c1c(C)oc2cc(Oc3ccnc4cc(OCC5OCCO5)ccc34)ccc12` [Example 83, 6-{[7-(1,3-dioxolan-2-ylmethoxy)quinolin-4-yl]oxy}-N,2-dimethyl-1-benzofuran-3-carboxamide] came in with a Ki of less than 1 nM. With `COc1ccc2c(Oc3ccc4c(C(=O)NC[C@@H]5CCCO5)c(C)oc4c3)ccnc2c1` [Example 85, 6-[(7-methoxyquinolin-4-yl)oxy]-2-methyl-N-[(2S)-tetrahydrofuran-2-ylmethyl]-1-benzofuran-3-carboxamide] the figure was greater than 10 nM; with `CNC(=O)c1c(C)n(C)c2cc(Oc3ccnc4cc(OC)ccc34)ccc12` [Example 75, [(7-methoxyquinolin-4-yl)oxy]-N,1,2-trimethyl-1H-indole-3-carboxamide], greater than 10 nM. `CNC(=O)c1c(C)n(C)c2cc(Oc3ccnc4cc(OCCN5CCCC5)ccc34)ccc12` [Example 78, N,1,2-trimethyl-6-{[7-(2-pyrrolidin-1-ylethoxy)quinolin-4-yl]oxy}-1H-indole-3-carboxamide] registered a Ki greater than 10 nM. With `COc1ccc2c(Oc3ccc4c(C(=O)NCC(C)O)c(C)sc4c3)ccnc2c1` (stereo not drawn) [Example 80, N(2-hydroxypropyl)-6-[(7-methoxyquinolin-4-yl)oxy]-2-methyl-1-benzothiophene3-carboxamide] the figure was greater than 10 nM; with `Cc1sc2cc(Oc3ccnc4cc(O)ccc34)ccc2c1C(=O)NCCN(C)C` [Example 57, N-[2-(dimethylamino)ethyl]-6-[(7-hydroxyquinolin-4-yl)oxy]-2-methyl-1-benzothiophene-3-carboxamide], greater than 10 nM.

With `CCN(CC)CCOc1ccc2c(Oc3ccc4c(C(=O)NC5CC5)c(C)oc4c3)ccnc2c1` [Example 91, N-cyclopropyl-2-methyl-6-({7-[2-(diethylamino)ethoxy]quinolin-4-yl}oxy)-1-benzofuran-3-carboxamide], the Ki was less than 1 nM. `Cc1oc2cc(Oc3ccnc4cc(OCCNC(C)(C)C)ccc34)ccc2c1C(=O)NC1CC1` [Example 98] had an inhibition constant (Ki) of less than 1 nM. For the molecule `CNC(=O)c1c(C)oc2cc(Oc3ccnc4cc(C(F)(F)F)ccc34)ccc12` [Example 61, N,2-dimethyl-6-{[7-(trifluoromethyl)quinolin-4-yl]oxy}-1-benzofuran-3-carboxamide], the Ki was greater than 10 nM. As for `COCC(C)NCCOc1ccc2c(Oc3ccc4c(C(=O)NC5CC5)c(C)oc4c3)ccnc2c1` (stereo not drawn) [Example 97, N-cyclopropyl-6-[(7-{2-[(2-methoxy-1-methylethyl)amino]ethoxy}quinolin-4-yl)oxy]-2-methyl-1-benzofuran-3-carboxamide], the Ki is less than 1 nM. With `COc1ccc2c(Oc3ccc4c(C(=O)NC(C)C)c(C)sc4c3)ccnc2c1` [Example 71, N-isopropyl-6-[(7-methoxyquinolin-4-yl)oxy]-2-methyl-1-benzothiophene-3-carboxamide] the figure was 1 to 10 nM. Next, `COCC(C)NC(=O)c1c(C)oc2cc(Oc3ccnc4cc(OC)ccc34)ccc12` (stereo not drawn) [Example 87, 6-[(7-methoxyquinolin-4-yl)oxy]-2-methyl-N-[2-methoxy-1-methyl-ethyl]-1-benzofuran-3-carboxamide]: greater than 10 nM; `CNC(=O)c1c(C)oc2cc(Oc3ccnc4cc(C(=O)N5CCC[C@H]5COC)ccc34)ccc12` [Example 15, 6-[(7-([(2S)-2-(methoxymethyl)pyrrolidin-1-yl]carbonyl}quinolin-4-yl)oxy]-N,2-dimethyl-1-benzofuran-3-carboxamide]: 1 to 10 nM.
